From patent US10927117B2 (BEIGENE SWITZERLAND GMBH, priority 2016, dated 2021)
pIC50: −log10 of the molar value.

Tests used:
[1] = test system: advanced B cell malignancies; test: Phase 1 trial in patients with advanced B cell malignancies (cutoff Oct. 19, 2015); format: in vivo, human
Source text: A total of 39 patients, including all 25 patients from the initial dose-escalation component and 14 patients from the ongoing dose-expansion component were enrolled.
As of Oct. 19, 2015, the cutoff date for data analysis, 29 objective responses have been observed, including 3 complete responses (CRs), 1 very good partial response (VGPR), and 25 partial responses (PRs). 31 of the 39 patients remain on study treatment, free of progression, including all patients to date who have achieved an objective response.

TEC = molecular target: T1, TEC (Homo sapiens, UniProt P42680); test: IC50 determination of TEC (TR-FRET); format: biochemical; conditions: at KM of ATP, 1-hour pre-incubation
T1 sequence (P42680 1-631): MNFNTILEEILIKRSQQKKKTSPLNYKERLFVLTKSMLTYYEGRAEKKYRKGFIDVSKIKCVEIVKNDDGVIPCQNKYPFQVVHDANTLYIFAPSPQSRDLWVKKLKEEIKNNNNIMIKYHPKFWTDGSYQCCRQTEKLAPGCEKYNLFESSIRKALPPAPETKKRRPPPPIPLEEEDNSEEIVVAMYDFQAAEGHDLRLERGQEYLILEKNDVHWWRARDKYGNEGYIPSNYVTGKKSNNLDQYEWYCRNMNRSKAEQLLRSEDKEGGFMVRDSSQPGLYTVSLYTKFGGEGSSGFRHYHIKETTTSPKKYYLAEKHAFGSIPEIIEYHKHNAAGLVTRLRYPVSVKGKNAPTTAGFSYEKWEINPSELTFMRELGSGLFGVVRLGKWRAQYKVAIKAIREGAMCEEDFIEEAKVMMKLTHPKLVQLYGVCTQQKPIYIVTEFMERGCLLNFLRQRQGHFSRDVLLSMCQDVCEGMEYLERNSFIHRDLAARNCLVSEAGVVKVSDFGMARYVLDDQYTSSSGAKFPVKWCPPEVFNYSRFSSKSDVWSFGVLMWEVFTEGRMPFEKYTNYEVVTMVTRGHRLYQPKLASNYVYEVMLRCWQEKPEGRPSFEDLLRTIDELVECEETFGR

[2] = Pharmacokinetics in rats (LC-MS/MS); format: in vivo, Sprague-Dawley rats
[3] = Burkitt's-like Lymphoma patients
[4] = Burkitt's-like Lymphoma patients, number of patients/total
[5] = Chronic Lymphocytic Leukemia patients
[6] = Chronic Lymphocytic Leukemia patients, number of patients/total
[7] = DLBCL patients, number of patients/total
[8] = Hairy Cell Leukemia patients, number of patients/total
[9] = Indolent NHL patients, number of patients/total
[10] = Mantle Cell Lymphoma patients, number of patients/total
[11] = Waldenström's Macroglobulinemia patients
[12] = Waldenström's Macroglobulinemia patients, number of patients/total

With `C=CC(=O)N1CCC([C@@H]2CCNc3c(C(N)=O)c(-c4ccc(Oc5ccccc5)cc4)nn32)CC1` [Compound 1, (S)-7-(1-acryloylpiperidin-4-yl)-2-(4-phenoxyphenyl)-4,5,6,7-tetra-hydropyrazolo[1,5-a]pyrimidine-3-carboxamide] the patients who discontinued ([1]; 6 disease progression, 2 adverse events related to underlying malignancy) was 8, the “exacerbation or new event of atrial fibrillation/flutter (AF)” value ([1]; 6 patients with baseline history of AF) was “no exacerbation or new event of AF” and the “complete responses (CRs)” value ([1]; 39 patients enrolled) was 3. For the same molecule, the “partial responses (PRs)” value ([1]; 39 patients enrolled) was 25, the “very good partial response (VGPR)” value ([1]; 39 patients enrolled) was 1 and the objective responses ([1]; 39 patients enrolled, cutoff Oct. 19, 2015) was 29. The “Best Response CR” value [1, 3] was “(0%)”, the “Best Response PD” value [1, 3] was “(100%)” and the “Best Response PR” value [1, 3] was “(0%)”. For the same molecule, the “Best Response SD” value [1, 3] was “(0%)”, the “ORR (CR + PR)” value [1, 3] was “(0%)” and the “Best Response CR” value [1, 4] was 0/1. The “Best Response PD” value [1, 4] was 1/1, the “Best Response PR” value [1, 4] was 0/1 and the “Best Response SD” value [1, 4] was 0/1. For the same molecule, the “ORR (CR + PR)” value [1, 4] was 0/1, the “Best Response PD” value [1, 5] was “(0%)” and the “Best Response SD” value [1, 5] was “(7%)”. The “ORR (CR + PR)” value [1, 5] was “(93%)”, the “Best Response CR” value ([1]; Chronic Lymphocytic Leukemia patients, cutoff Oct. 19, 2015) was “(0%)” and the “Best Response PR” value ([1]; Chronic Lymphocytic Leukemia patients, includes five patients with lymphocytosis at latest assessment) was “(93%)”. For the same molecule, the “Best Response PD” value ([1]; Chronic Lymphocytic Leukemia patients, number of patients) was 0, the “Best Response SD” value [1, 6] was 1/14 and the “ORR (CR + PR)” value [1, 6] was 13/14. The “Best Response CR” value ([1]; Chronic Lymphocytic Leukemia patients, number of patients/total, cutoff Oct. 19, 2015) was 0/14, the “Best Response PR” value ([1]; Chronic Lymphocytic Leukemia patients, number of patients/total, includes five patients with lymphocytosis at latest assessment) was 13/14^1 and the “Best Response CR” value ([1]; DLBCL patients) was “(25%)”. For the same molecule, the “Best Response PD” value ([1]; DLBCL patients) was “(75%)”, the “Best Response PR” value ([1]; DLBCL patients) was “(0%)” and the “Best Response SD” value ([1]; DLBCL patients) was “(0%)”. The “ORR (CR + PR)” value ([1]; DLBCL patients) was “(25%)”, the “Best Response CR” value [1, 7] was 1/4 and the “Best Response PD” value [1, 7] was 3/4. The “Best Response PR” value [1, 7] was 0/4, the “Best Response SD” value [1, 7] was 0/4 and the “ORR (CR + PR)” value [1, 7] was 1/4. The “Best Response CR” value ([1]; Hairy Cell Leukemia patients) was “(0%)”, the “Best Response PD” value ([1]; Hairy Cell Leukemia patients) was “(0%)” and the “Best Response PR” value ([1]; Hairy Cell Leukemia patients) was “(100%)”. For the same molecule, the “Best Response SD” value ([1]; Hairy Cell Leukemia patients) was “(0%)”, the “ORR (CR + PR)” value ([1]; Hairy Cell Leukemia patients) was “(100%)” and the “Best Response CR” value [1, 8] was 0/1. For the same molecule, the “Best Response PD” value [1, 8] was 0/1, the “Best Response PR” value [1, 8] was 1/1 and the “Best Response SD” value [1, 8] was 0/1. For the same molecule, the “ORR (CR + PR)” value [1, 8] was 1/1, the “Best Response CR” value ([1]; Indolent NHL patients) was “(0%)” and the “Best Response PD” value ([1]; Indolent NHL patients) was “(0%)”. For the same molecule, the “Best Response PR” value ([1]; Indolent NHL patients) was “(0%)”, the “Best Response SD” value ([1]; Indolent NHL patients) was “(100%)” and the “ORR (CR + PR)” value ([1]; Indolent NHL patients) was “(0%)”. For the same molecule, the “Best Response CR” value [1, 9] was 0/2, the “Best Response PD” value [1, 9] was 0/2 and the “Best Response PR” value [1, 9] was 0/2. The “Best Response SD” value [1, 9] was 2/2, the “ORR (CR + PR)” value [1, 9] was 0/2 and the “Best Response CR” value ([1]; Mantle Cell Lymphoma patients) was “(20%)”. For the same molecule, the “Best Response PD” value ([1]; Mantle Cell Lymphoma patients) was “(10%)”, the “Best Response PR” value ([1]; Mantle Cell Lymphoma patients) was “(60%)” and the “Best Response SD” value ([1]; Mantle Cell Lymphoma patients) was “(10%)”. For the same molecule, the “ORR (CR + PR)” value ([1]; Mantle Cell Lymphoma patients) was “(80%)”, the “Best Response CR” value [1, 10] was 2/10 and the “Best Response PD” value [1, 10] was 1/10. For the same molecule, the “Best Response PR” value [1, 10] was 6/10, the “Best Response SD” value [1, 10] was 1/10 and the “ORR (CR + PR)” value [1, 10] was 8/10. The “Best Response CR” value [1, 11] was “(0%)”, the “Best Response PD” value [1, 11] was “(14%)” and the “Best Response SD” value [1, 11] was “(0%)”. The “ORR (CR + PR)” value [1, 11] was “(86%)”, the “Best Response PR” value ([1]; Waldenström's Macroglobulinemia patients, includes one patient with VGPR) was “(86%)” and the “Best Response CR” value [1, 12] was 0/7. The “Best Response PD” value [1, 12] was 1/7, the “Best Response SD” value [1, 12] was 0/7 and the “ORR (CR + PR)” value [1, 12] was 6/7. The “Best Response PR” value ([1]; Waldenström's Macroglobulinemia patients, number of patients/total, includes one patient with VGPR) was 6/7^2, the “≥Grade 3 AEs assessed as possibly drug-related” value ([1]; all self-limited neutropenia) was 4 and the “patients who died during study” value ([1]; disease progression or its complications) was 3. For the same molecule, the “drug-related serious adverse events (SAEs)” value ([1]; human, in vivo) was “no drug-related serious adverse events”, the “number of ≥Grade 3 AEs” value ([1]; human, in vivo) was 19 and the major hemorrhage ([1]; not considered drug-related) was “one case”. For the same molecule, the “patients remaining on study treatment, free of progression” value ([1]; of the 39 patients) was 31.

For `C=CC(=O)N1CCC([C@@H]2CCNc3c(C(N)=O)c(-c4ccc(Oc5ccccc5)cc4)nn32)CC1` [Crystalline Form A, (S)-7-(1-acryloylpiperidin-4-yl)-2-(4-phenoxyphenyl)-4,5,6,7-tetra-hydropyrazolo[1,5-a]pyrimidine-3-carboxamide], the pIC50 (TEC) was 8.72, the “linearity of kinetics over the dose range” value ([2]; female rats) was “linear” and the “accumulation following multiple oral dosing” value ([2]; male and female rats) was “no statistically significant accumulation”. The linearity of kinetics ([2]; male rats) was “not as good”, the absorption ([2]; rats) was “quickly absorbed” and the oral bioavailability ([2]; rats) was “good oral bioavailability”. The “plasma clearance (CL)” value ([2]; rats) was “high plasma clearance”.
